Reference: patent publication US6433008B1, “α-aryl-N-alkylnitrones and pharmaceutical compositions containing the same” (Centaur Pharmaceuticals, Inc., priority 1997, dated 2002)

Legend:
[1] = tested on: MBP-induced EAE in Lewis rats; assay: Prevention of MBP-induced experimental allergic encephalomyelitis (EAE); assay type: in vivo; settings: 100 mg/kg b.i.d. oral gavage, day 3 to day 16 post-inoculation
Procedure: Experimental allergic encephalomyelitis (EAE) induced by injection of guinea pig myelin basic protein (MBP) or MBP peptide fragments is reported to be a useful model for MS. See, for example, D. E. McFarlin et al., “Recurrent Experimental Allergic Encephalomyelitis in the Lewis Rat,” The Journal of Immnunology, 113(2): 712-715 (1974).
Female, Lewis rats of 8 weeks of age (180-250 g) were weighed and then given two intradermal injections (0.1 mL each) of 0.4 mg of M. tuberculin in 0.1 mL incomplete Freunds adjuvant and […] of myelin basic protein in 0.1 mL of saline into the base of the tail. Animals were weighed daily and given a clinical score beginning on Day 8, post inoculation, according to the following criteria:
2.5=Hind limb paralysis and front limb weakness
3.0=Hind and front limb paralysis
4.0=Moribund state or death
On day 3, post-inoculation animals were administered b.i.d either a test compound (100 mg/kg) or 1% methylcellulose vehicle by oral gavage up to and including day 16.

[2] = tested on: rats injected with Aβ(25-35) and ibotenate into the hippocampus; assay: Reduction of cognitive defects due to Aβ-peptide/ibotenate (Morris water maze); assay type: in vivo, Male Sprague-Dawley rats; settings: 10 mg/kg oral gavage daily, Morris water maze 9-11 days after injection
Procedure: The procedures employed in this example are similar to those described in Dornan et al., NeuroReport 5, 165-168 (1993). Male Sprague-Dawley rats (200-300 g) were weighed and given 10 mg/kg of α-(2-ethoxyphenyl)-N-tert-butylnitrone or 1% methylcellulose by oral gavage. One hour later, the rats were stereotaxically injected into the CA1 region of their hippocampus with 8 nmol of Aβ(25-35) and 6 nmol of ibotenate per side (coordinates from bregma −3.6=AP, ±2.2=ML, −3.0=DV from the top of the dura). Controls were injected with PBS (pH 7.4). All injections were 1.5 μL in volume. The animals receiving PBS were orally dosed with 1% methylcellulose. Oral dosing continued daily until the end of the Morris water maze testing.
Nine to eleven days following injection, animals were tested in a Morris water maze task to measure spatial memory and learning. Animals were given three days of testing with four to six trials per day. The last trial on the fourth day was a probe trial where the platform was removed and time in quadrant and annulae crossings were determined. Following the behavioral testing, animals were perfused with 10% neutral formalin. The brain was post-fixed for 1 week in 10% formalin and then sliced for histological evaluation. Image analysis of cresyl violet staining was used to compare the neuronal loss (lesion volume) in the hippocampus between groups.

MRL/MpJ Fas^lpr mice = assay: Reduction of cognitive deficits in autoimmune mice (T-maze task); assay type: in vivo; settings: 100 mg/kg oral gavage daily for 8 to 9 weeks, Fas^lpr mice tested at 4 months of age
Procedure: MRL/MpJfas^lpr (“mutant mice” or “Fas^lpr”) strains of mice have been described as useful models of Lupus due to their autoimmune lymphoproliferative pathology. In particular, the mutant mice show a cognitive deficit at approximately four months of age, which is not observed at two months of age. See, for example, Forster et al., 1988, Behav. Neural Biology, 49, 139-151.
In the experiment, male MRL/MpJ Fas^lPr and normal MRL/MpJ++ mice of 8 weeks of age were weighed and administered 100 mg/kg of the test compound (either α-(2-ethoxyphenyl)-N-tert-butylnitrone or α-(4-ethoxyphenyl)-N-cyclohexylnitrone) or 1% methylcellulose vehicle by oral gavage daily for 8 to 9 weeks. At 4 months of age, the mice were tested for avoidance, discrimination, session criteria and acquisition in a one day T-maze task with a maximum of 25 trials. Criteria was met with four of five trials correct with the last two correct trials being consecutive in avoidance and discrimination.

Structure (SMILES)	CNS inflammatory deficit in acute EAE animals (clinical score) [1]	also measured
CCOc1cc(C=[N+]([O-])C(C)(C)C)ccc1OC [Example 3, α-(3-Ethoxy-4-methoxyphenyl)-N-tert-butylnitrone]	reduced the CNS inflammatory deficit	–
CCOc1ccc(C=[N+]([O-])C(C)(C)C)cc1 [Example 4, α-(4-Ethoxyphenyl)-N-tert-butylnitrone]	did not significantly reduce the CNS inflammatory deficit	–
COc1cc(C=[N+]([O-])C(C)(C)C)ccc1OCc1ccccc1 [Example 5, α-(4-Benzyloxy-3-methoxyphenyl)-N-tert-butylnitrone]	did not significantly reduce the CNS inflammatory deficit	–
CCOc1ccccc1C=[N+]([O-])C(C)(C)C [Example 7, α-(2-Ethoxyphenyl)-N-tert-butylnitrone]	did not significantly reduce the CNS inflammatory deficit	Aβ peptide/ibotenate-induced learning deficit [2]: reduced the Aβ peptide/ibotenate-induced learning deficit; acquisition in T-maze task (MRL/MpJ Fas^lpr mice): reduced acquisition values; avoidance in T-maze task (MRL/MpJ Fas^lpr mice): acquired avoidance skills earlier than untreated mutant mice
CCCC[N+]([O-])=Cc1ccc(OCC)cc1 [Example 10, α-(4-ethoxyphenyl)-N-n-butylnitrone]	did not significantly reduce the CNS inflammatory deficit	–
CCOc1ccc(C=[N+]([O-])C2CCCCC2)cc1 [Example 11, α-(4-Ethoxyphenyl)-N-cyclohexylnitrone]	reduced the CNS inflammatory deficit	acquisition in T-maze task (MRL/MpJ Fas^lpr mice): reduced acquisition values; avoidance in T-maze task (MRL/MpJ Fas^lpr mice): acquired avoidance skills earlier than untreated mutant mice
CCOc1ccc(C=[N+]([O-])C2CCCCC2)cc1OC [Example 15, α-(4-Ethoxy-3-methoxyphenyl)-N-cyclohexylnitrone]	did not significantly reduce the CNS inflammatory deficit	–
CCOc1cc(C=[N+]([O-])C(C)C)ccc1OC [Example 17, α-(3-Ethoxy-4-methoxyphenyl)-N-isopropyinitrone]	reduced the CNS inflammatory deficit	–
CCCCCCOc1ccc(C=[N+]([O-])C2CCCCC2)cc1OCC [Example 22, α-(3-Ethoxy-4-hexyloxyphenyl)-N-cyclohexylnitrone]	reduced the CNS inflammatory deficit	–
CCCCCCCCOc1ccc(C=[N+]([O-])C(C)(C)C)c(F)c1 [Example 29, α-(2-Fluoro-4-octyloxyphenyl)-N-tert-butylnitrone]	did not significantly reduce the CNS inflammatory deficit	–
CC(C)(C)[N+]([O-])=Cc1ccc(OCc2ccccc2)cc1 [Example 41, α-(4-Benzyloxyphenyl)-N-tert-butylnitrone]	reduced the CNS inflammatory deficit	–
[O-][N+](=Cc1ccc(OCc2ccccc2)cc1)C1CCCC1 [Example 42, α-(4-Benzyloxyphenyl)-N-cyclopentylnitrone]	reduced the CNS inflammatory deficit	–
CCOc1cc(C=[N+]([O-])C(C)(C)CC(C)(C)C)ccc1OC [Example 45, α-(3-Ethoxy-4-methoxyphenyl)-N-tert-octylnitrone]	reduced the CNS inflammatory deficit	–
